# Results reported in patent publication US8680134B2, “Triptans for the treatment of psoriasis” (priority 2009, dated 2014).
# Entries after “also recorded” stand apart in the source; their conditions may differ.
# Legend:
# [1] = system: psoriasis lesions (scales) on elbow; test: Example 1: topical sumatriptan cream on one elbow, then the other, in a subject with chronic psoriasis; type: in vivo, human; conditions: cream 0.04% w/w sumatriptan
# Experimental: A subject with chronic psoriasis was administered a cream composed of 0.04% w/w sumatriptan, Dimethicon, Capric Caprylic triglyceride, Mineral oil, Cetyl alcohol & Glyceryl stearate & PEG-75 & Ceteth-20 & Steareth-20, Cetearyl alcohol, Shea butter, Glycerin, Triclosan, Propylene Glycol, Sodium Benzoate, Methylisothiazolinone in water. It was used for five days, once daily, on one elbow. […] No change was observed on psoriasis lesions on the untreated side. The subject was instructed to use the cream once daily on the complementary elbow.
# [2] = system: psoriasis scales on both elbows; test: Example 2: sumatriptan cream on left elbow versus carrier cream on right elbow in the same subject; type: in vivo, human
# From the text: A subject with scales on both elbows was recruited. The subject used twice daily for 5 days two different creams: • a.
# The abovementioned design eliminates the mild possible therapeutic effect of an emollient on scales and healing. The mode of treatment eliminates as well the possibility of self healing or placebo effect.
structure (smiles),measurement,setting,value
"CNS(=O)(=O)Cc1ccc2[nH]cc(CCN(C)C)c2c1 [sumatriptan, 1-[3-(2-Dimethylaminoethyl)-1H-indol-5-yl]-N-methyl-methanesulfonamide]",skin condition of the treated elbow,"[1]; once daily for five days, one elbow",Healthy skin with normalization was noted
same,scales on the treated elbow,"[1]; once daily for five days, one elbow, person with chronic psoriasis",disappearance of scales was prominent on the treated side
same,skin normalization on the complementary elbow,"[1]; once daily, after scale disappearance",skin turned into normal within the next week
same,time to scale disappearance on the complementary elbow,"[1]; once daily, complementary elbow",three
same,scales and skin condition of the treated (left) elbow,"[2]; cream 0.04% w/w sumatriptan (40 mg/100 ml), twice daily, four days after start of use, person",Disappearance of scales and skin return to normal is noted; also recorded: normalized the skin
same,duration of remission of psoriasis on the treated elbow,"[2]; cream 0.04% w/w sumatriptan, left elbow",about one
same,additional time to completed skin normalization,"[2]; cream 0.04% w/w sumatriptan, left elbow, counted after the first four days",4 to 5 days
